Data published in patent publication US7357832B2, “Water base pigment ink for ink-jet recording, ink cartridge accommodating the same, and ink-jet recording method” (Brother Kogyo Kabushiki Kaisha, priority 2004, dated 2008).

assay: saturation vapor pressure; type: physicochemical

Saturation vapor pressure | Compound
2.21 hPa | CCCOCC(C)O (centres unmarked) [PGPE, propylene glycol-n-propyl ether]
8.71 hPa | COCC(C)O (centres unmarked) [PGME, propylene glycol methyl ether]
5 hPa | COCC(C)OC(C)=O (centres unmarked) [PGMEA, propylene glycol methyl ether acetate]
9.4 hPa | CCOCC(C)O (centres unmarked) [PGEE, propylene glycol ethyl ether]
0.03 hPa | CCCOC(C)COC(C)CO (centres unmarked) [DPGPE, dipropylene glycol-n-propyl ether]
